The values below come from PMC12499452, “The Multitarget Compound ZLY032 Achieves Treatment of Chronic Wounds” (Advanced Science, 2025).

The structures appear in SMILES notation.

One assay addresses T1, FFA1 (Homo sapiens, UniProt O14842).
T1 construct: gene FFAR1; apparently endogenous in HEK293T cells (no transfection told); Western blot read-out
Kind of assay: cellular thermal shift assay (CETSA), Western blot. The class given is cell-based. To be noted: HEK293T cells.

The next assay deals with T2, PPARδ (Homo sapiens, UniProt Q03181).
T2 construct: gene PPARD; apparently endogenous in HEK293T cells (no transfection told); Western blot read-out
T2 sequence (Q03181 1-441): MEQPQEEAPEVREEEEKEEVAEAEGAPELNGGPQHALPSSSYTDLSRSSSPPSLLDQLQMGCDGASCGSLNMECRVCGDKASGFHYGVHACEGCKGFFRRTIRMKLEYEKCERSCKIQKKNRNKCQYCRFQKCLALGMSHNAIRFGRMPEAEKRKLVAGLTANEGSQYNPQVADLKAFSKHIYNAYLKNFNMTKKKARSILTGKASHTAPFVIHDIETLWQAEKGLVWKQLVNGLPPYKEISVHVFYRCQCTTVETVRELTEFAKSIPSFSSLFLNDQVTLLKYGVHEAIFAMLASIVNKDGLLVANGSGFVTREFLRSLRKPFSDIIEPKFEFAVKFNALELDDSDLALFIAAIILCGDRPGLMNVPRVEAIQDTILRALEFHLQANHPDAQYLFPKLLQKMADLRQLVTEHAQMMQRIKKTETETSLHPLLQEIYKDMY
Kind of assay: cellular thermal shift assay (CETSA), Western blot. The class given is cell-based. The following applies: HEK293T cells. Background: A western blot detects proteins with antibodies after separation by electrophoresis.

The next assay addresses T3, ASAL (from S. aureus) (Staphylococcus aureus, UniProt Q2FIB5).
T3 construct: gene argH; immobilised on CM5 chip
T3 sequence (Q2FIB5 1-459): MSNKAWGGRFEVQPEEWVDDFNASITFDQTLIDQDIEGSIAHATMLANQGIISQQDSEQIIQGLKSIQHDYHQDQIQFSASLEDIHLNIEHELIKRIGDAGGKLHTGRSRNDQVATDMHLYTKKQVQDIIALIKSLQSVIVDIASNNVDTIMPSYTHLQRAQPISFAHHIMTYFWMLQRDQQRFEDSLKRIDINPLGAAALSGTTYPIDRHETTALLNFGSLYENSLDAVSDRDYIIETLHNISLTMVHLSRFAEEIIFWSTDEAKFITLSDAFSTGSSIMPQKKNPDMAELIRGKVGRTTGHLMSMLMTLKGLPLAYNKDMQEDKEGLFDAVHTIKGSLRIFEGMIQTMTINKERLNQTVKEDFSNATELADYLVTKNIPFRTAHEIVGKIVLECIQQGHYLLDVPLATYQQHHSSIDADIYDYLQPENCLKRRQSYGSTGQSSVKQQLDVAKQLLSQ
Briefly: surface plasmon resonance (Biacore T200, CM5 chip, immobilised protein). The class given is binding. The following applies: read-out: affinity constant.

T1 sequence (O14842 whole entry): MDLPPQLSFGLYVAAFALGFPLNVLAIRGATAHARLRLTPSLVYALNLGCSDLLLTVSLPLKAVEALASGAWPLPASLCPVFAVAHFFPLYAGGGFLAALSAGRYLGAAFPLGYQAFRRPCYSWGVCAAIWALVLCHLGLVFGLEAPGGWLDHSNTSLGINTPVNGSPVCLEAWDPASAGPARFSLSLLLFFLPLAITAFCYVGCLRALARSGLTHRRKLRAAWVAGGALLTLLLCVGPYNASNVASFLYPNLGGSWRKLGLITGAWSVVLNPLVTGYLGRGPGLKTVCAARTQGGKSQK

As for `Cc1nc(-c2ccc(C(F)(F)F)cc2)sc1COc1ccc2c(c1)OC[C@H]2CC(=O)O` [ZLY032], the “cellular thermal shift assay (CETSA), Western blot” value at FFA1 was “ZLY032 had direct binding ability with FFA1 and PPARδ (Figure S11, Supporting Information)”; on PPARδ, “ZLY032 had direct binding ability with FFA1 and PPARδ (Figure S11, Supporting Information)”. Besides, at ASAL (from S. aureus), the Kd was 10.9 µM.
